Experiments:
HCT116 (colon) = test: In vitro cytotoxic activity assay (MTT), HCT116; assay type: cell-based; settings: Homo sapiens, HCT-116; HCT116 (colon) cells, exposed for 96 hours; read-out: IC50, 50% inhibition of cell proliferation
Experimental: (§1) Compounds 1-15 were screened for their in vitro cytotoxic activity utilizing a 3-(4,5-dimethyl-thiazol-2-yl)-2,5-diphenyltetrazolium bromide (MTT) assay against selected cancer human cell lines consisting of PC3 (prostate), HCT116 (colon), A375 (melanoma), H1299 (lung), MIAPaCa-2 (pancreas), HL60 (leukemia), MCF7 (breast), MDA-MB-231 (breast) (T. Mosmann, J. Immunol. Meth., 1983, 65, 55-63). The cells were cultured at 37° C. in RMPI1640 medium supplemented with 10% fetal bovine serum, 50 IU/mL penicillin, and 50 μg/mL streptomycin in a 5% CO2 incubator. All cells were sub-cultured 3 times/week by trypsinisation. Viable cells were seeded and allowed to adhere for 12 h before a test drug was added in 96-well plates at an initial density of 1.0×10^5 cells/mL. Tumour cell lines were separately exposed to various concentrations of the tested compounds followed by incubation at a temperature of 37° C. during 96 h inside a medium of fresh RMPI 1640. Cells were subsequently incubated at 37° C. using MTT at 0.5 mg/mL during 4 h. After removal of supernatant, formazan crystals were dissolved in isopropanol and the optical density was measured at 570 nm. CX-4945 was used as a positive control.

MCF7 (breast) = test: In vitro cytotoxic activity assay (MTT), MCF7; assay type: cell-based; settings: Homo sapiens; MCF7 (breast) cells, exposed for 96 hours; read-out: IC50, 50% inhibition of cell proliferation
Experimental: as §1

H1299 (lung) = test: In vitro cytotoxic activity assay (MTT), H1299; assay type: cell-based; settings: Homo sapiens, NCI-H1299; H1299 (lung) cells, exposed for 96 hours; read-out: IC50, 50% inhibition of cell proliferation
Experimental: as §1

PC3 (prostate) = test: In vitro cytotoxic activity assay (MTT), PC3; assay type: cell-based; settings: Homo sapiens, Prostate cell; PC3 (prostate) cells, exposed for 96 hours; read-out: IC50, 50% inhibition of cell proliferation
Experimental: as §1

HL60 (leukemia) = test: In vitro cytotoxic activity assay (MTT), HL60; assay type: cell-based; settings: Homo sapiens, HL-60; HL60 (leukemia) cells, exposed for 96 hours; read-out: IC50, 50% inhibition of cell proliferation
Experimental: as §1

[1] = target: T1, recombinant human CK2 (RRββ-holoenzyme) (Homo sapiens, UniProt P68400); test: CK2 Kinase Assay (33P-ATP, filter plate); assay type: biochemical; settings: final ATP concentration 15 μM, 10 min at 30° C., eight concentrations; read-out: protein kinase CK2 IC50
T1 construct: purchased Millipore
T1 sequence (P68400 whole entry): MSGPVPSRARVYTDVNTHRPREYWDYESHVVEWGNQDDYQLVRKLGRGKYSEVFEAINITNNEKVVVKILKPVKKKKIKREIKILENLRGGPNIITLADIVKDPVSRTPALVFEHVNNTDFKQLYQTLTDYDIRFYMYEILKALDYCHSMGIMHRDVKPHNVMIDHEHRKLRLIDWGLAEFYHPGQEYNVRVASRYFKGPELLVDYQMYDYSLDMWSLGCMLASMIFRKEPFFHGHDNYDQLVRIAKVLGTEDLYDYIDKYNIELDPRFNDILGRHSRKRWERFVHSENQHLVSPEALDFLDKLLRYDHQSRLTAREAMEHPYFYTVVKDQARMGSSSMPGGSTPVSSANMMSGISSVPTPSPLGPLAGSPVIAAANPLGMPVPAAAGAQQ
T1 sequence (P67870 whole entry partner): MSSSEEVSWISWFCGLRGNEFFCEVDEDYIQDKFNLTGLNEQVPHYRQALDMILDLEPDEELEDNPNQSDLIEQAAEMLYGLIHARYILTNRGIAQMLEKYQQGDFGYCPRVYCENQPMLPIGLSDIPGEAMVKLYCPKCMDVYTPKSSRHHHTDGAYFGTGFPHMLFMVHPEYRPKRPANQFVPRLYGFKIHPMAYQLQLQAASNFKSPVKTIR
Experimental: CK2 Kinase Assay was conducted using the protocol as described in Pierre F. et al; J. Med. Chem. 2011, 54, 635-654. The tested compounds in aqueous solution were added at a volume of 10 μL to a reaction mixture comprising 10 μL of assay dilution buffer (ADB; 20 mM MOPS, pH 7.2, 25 mM β-glycerol phosphate, 5 mM EGTA, 1 mM sodium orthovanadate, and 1 mM dithiothreitol), 10 μL of substrate peptide (RRRDDDSDDD, dissolved in ADB at a concentration of 1 mM), 10 μL of recombinant human CK2 (RRββ-holoenzyme, 25 ng dissolved in ADB; Millipore). Reactions were initiated by the addition of 10 μL of ATP solution (90% 75 mMMgCl2, 75 μM ATP (final ATP concentration:15 μM) dissolved in ADB; 10% [γ-33P] ATP (stock 1 mCi/100 μL; 3000 Ci/mmol (Perkin-Elmer) and maintained for 10 min at 30° C. The reactions were quenched with 100 μL of 0.75% phosphoric acid and then transferred to and filtered through a phosphor cellulose filter plate (Millipore). After washing each well five times with 0.75% phosphoric acid, the plate was dried under vacuum for 5 min and, following the addition of 15 μL of scintillation fluid to each well, the residual radioactivity was measured using a Wallac luminescence counter. The IC50 values were derived from eight concentrations of test inhibitors.

MDA-MB-231 (breast) = test: In vitro cytotoxic activity assay (MTT), MDA-MB-231; assay type: cell-based; settings: Homo sapiens; MDA-MB-231 (breast) cells, exposed for 96 hours; read-out: IC50, 50% inhibition of cell proliferation
Experimental: as §1

MIAPaCa-2 (pancreas) = test: In vitro cytotoxic activity assay (MTT), MIAPaCa-2; assay type: cell-based; settings: Homo sapiens, MIA PaCa-2; MIAPaCa-2 (pancreas) cells, exposed for 96 hours; read-out: IC50, 50% inhibition of cell proliferation
Experimental: as §1

A375 (melanoma) = test: In vitro cytotoxic activity assay (MTT), A375; assay type: cell-based; settings: Homo sapiens, A-375; A375 (melanoma) cells, exposed for 96 hours; read-out: IC50, 50% inhibition of cell proliferation
Experimental: as §1

Question: How did the IC50 (HCT116 (colon)) turn out when `O=C(O)c1cc2c([nH]c3cc(O)ccc32)c(Nc2cccc(Cl)c2)n1` [Compound 1, 1-((3-chlorophenyl)amino)-7-hydroxy-9H-pyrido[3,4-b]indole-3-carboxylic Acid] was run?
Answer: 1.6 µM

Question: And the IC50 (MCF7 (breast))?
Answer: 3.2 µM

Question: And the IC50 (H1299 (lung))?
Answer: 1.8 µM

Question: What about the IC50 (PC3 (prostate)) of the same molecule?
Answer: 1.2 µM

Question: And the IC50 (HL60 (leukemia))?
Answer: 4.1 µM

Question: And the IC50 [1]?
Answer: 0.165 µM

Question: What about the IC50 (MDA-MB-231 (breast)) of the same molecule?
Answer: 2.5 µM

Question: What about the IC50 (MIAPaCa-2 (pancreas)) of the same molecule?
Answer: 3.3 µM

Question: And the IC50 (A375 (melanoma))?
Answer: 5.7 µM

— patent publication US11897881B1, “Substituted pyrido[3,4-b]indole-3-carboxylic acids as CK2 inhibitors” (KING FAISAL UNIVERSITY, priority 2023, dated 2024)
